Paper PMC5372681, “Study of Different Variants of Mo Enzyme crARC and the Interaction with Its Partners crCytb5-R and crCytb5-1” (International Journal of Molecular Sciences, 2017)

How the values were obtained:
Format in all cases: biochemical
crARC [1] = target: T1, crARC (Chlamydomonas reinhardtii, UniProt F8UWQ7); test: HPLC of benzamidine formed; settings: 1 mM benzamidoxime, 3 mM dithionite, 2 mM benzylviologen, 100 mM potassium phosphate pH 7.4, 37 °C
T1 construct: gene ARC; N-terminal His6 (pQE80), E. coli TP1000, Ni-NTA
T1 sequence (F8UWQ7 entry or part of it): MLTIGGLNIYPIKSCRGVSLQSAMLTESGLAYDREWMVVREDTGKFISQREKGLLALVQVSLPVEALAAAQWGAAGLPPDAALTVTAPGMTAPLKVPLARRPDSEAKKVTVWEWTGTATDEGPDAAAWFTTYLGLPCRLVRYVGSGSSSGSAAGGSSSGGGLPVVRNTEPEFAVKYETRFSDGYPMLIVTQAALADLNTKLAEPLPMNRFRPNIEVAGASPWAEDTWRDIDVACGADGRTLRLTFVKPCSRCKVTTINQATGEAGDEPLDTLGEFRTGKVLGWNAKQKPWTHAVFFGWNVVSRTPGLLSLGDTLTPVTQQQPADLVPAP

crARC [2] = target: T2, crARC (Chlamydomonas reinhardtii, UniProt F8UWQ7, F210A); test: HPLC of adenine formed; settings: 0.5 mM HAP, 3 mM dithionite, 2 mM benzylviologen, 100 mM potassium phosphate pH 7.4, 37 °C
T2 construct: gene ARC; N-terminal His6 (pQE80), E. coli TP1000, Ni-NTA
T2 sequence (F8UWQ7 entry or part of it F210A): as the sequence (F8UWQ7 entry or part of it) above, with F210A counted along it

crARC [3] = target: T3, crARC (Chlamydomonas reinhardtii, UniProt F8UWQ7, D182A); test: HPLC of adenine formed; settings: 0.5 mM HAP, 3 mM dithionite, 2 mM benzylviologen, 100 mM potassium phosphate pH 7.4, 37 °C
T3 construct: gene ARC; N-terminal His6 (pQE80), E. coli TP1000, Ni-NTA
T3 sequence (F8UWQ7 entry or part of it D182A): as the sequence (F8UWQ7 entry or part of it) above, with D182A counted along it

crARC [4] = target: T4, crARC (Chlamydomonas reinhardtii, UniProt F8UWQ7, R276A); test: HPLC of adenine formed; settings: 0.5 mM HAP, 3 mM dithionite, 2 mM benzylviologen, 100 mM potassium phosphate pH 7.4, 37 °C
T4 construct: gene ARC; N-terminal His6 (pQE80), E. coli TP1000, Ni-NTA
T4 sequence (F8UWQ7 entry or part of it R276A): as the sequence (F8UWQ7 entry or part of it) above, with R276A counted along it

crARC [5] = target: T1, crARC; test: HPLC of adenine formed; settings: 0.5 mM HAP, 3 mM dithionite, 2 mM benzylviologen, 100 mM potassium phosphate pH 7.4, 37 °C

SMILES	HPLC of benzamidine formed (crARC [1])	HPLC of adenine formed (crARC [2])	HPLC of adenine formed (crARC [3])	HPLC of adenine formed (crARC [4])	HPLC of adenine formed (crARC [5])
NC(=NO)c1ccccc1 [benzamidoxime]	the crARC activity was assayed in vitro using benzamidoxime as a substrate				
ONc1ncnc2[nH]cnc12 [HAP]		the mutants, D182A, F210A and R276A almost completely lost the mARC activity with dithionite	the mutants, D182A, F210A and R276A almost completely lost the mARC activity with dithionite	the mutants, D182A, F210A and R276A almost completely lost the mARC activity with dithionite	The crARC HAP reduction activity was determined with dithionite
